Experimental data as given in patent publication US11110195B2, “Esculentin 1a derivatives and uses thereof” (University of Houston System, priority 2013, dated 2021).
Values after ≈ are worked out from the molar mass of the structure shown. Read-outs that look alike come from different tables or passages of the source. Residues, ends and D or L forms follow the SMILES beside them.

Key:
Pseudomonas aeruginosa = test system: Pseudomonas aeruginosa
Protocol: (§1) To determine the minimum inhibitory concentration (MIC) of Esc-1a(1-21)NH2 that causes total inhibition of microbial growth against Pseudomonas aeruginosa and Staphylococcal strains, the following experiment (using P. aeruginosa ATCC 19660 as an example) was performed. MIC was determined using the 96 well micro-plate dilution assay. The test was performed in triplicate wells and Esc-1a(1-21)NH2 was serially diluted to give concentrations of 0.125 μM to 64 μM.
(§2) Day 1: Picked a colony from a P. aeruginosa ATCC19660 streak plate, inoculated in to nutrient broth and incubated overnight at 37° C. with shaking (250 rpm) Day 2 Steps: Removed 100 μl of the bacterial suspension and inoculated into 50 ml of fresh broth. Incubated for 2.5 hours with vigorous shaking (250 rpm) at 37° C. to achieve mid-log phase growth. Centrifuged the 50 ml culture at 3100 g for 10 minutes; discarded supernatant and resuspended pellet in 2 ml Muller-Hinton broth (MHB). Adjusted the optical density (OD) of the bacterial culture to 0.2 at 620 nm (corresponds to ˜10^7 CFU/ml) and diluted to 2×10^6 CFU/ml using MHB media. Thawed an aliquot of the peptide on ice. Pipetted 90 μl of MHB into wells A1, B1 and C1 and 50 μl of MHB media into A2-C2 through A12-C12. Added 10 μl of Esc-1a(1-21)NH2 into wells A1, B1 and C1 and performed serial twofold dilutions of peptide in a volume of 50 μl from column 1 to column 10 (i.e. transferred 50 μl from A1, B1 and C1 to A2, B2 and C2 and so on till A10-C10). […] Pipetted 50 μl of the diluted P. aeruginosa ATCC 19660 in to each well using a multichannel pipette (final concentration was 1×10^5 bacteria in 100 μl volume). Wrapped the plate using parafilm to prevent evaporation and incubated in a shaker incubator (150 rpm) at 37° C. for 18-24 h.
(§3) Day 3 Steps: Read the plate using the spectrophotometer at 590 nm after examining the plates visually for turbidity. Generated spot plates to check for bacterial growth by plating out the contents of the first 3 wells showing no visible growth of bacteria onto MHA plates. Plated dilutions in duplicate and incubated the plates at 37° C. for 18 hr.
(§4) Day 4: Counted the number of colonies on the agar plates and plotted the data.

Staphylococcus aureus = Staphylococcus aureus n. 6 ME, clinical ocular isolate
Protocol: as §1, §2, §3, §4

[1] = test system: Staphylococcus epidermidis; conditions: Staphylococcus epidermidis n. 21 (326) ME, clinical ocular isolate
Protocol: as §1, §2, §3, §4

Staphylococcus hominis = Staphylococcus hominis n. 1 ME, clinical ocular isolate
Protocol: as §1, §2, §3, §4

[2] = test system: Pseudomonas aeruginosa ATCC 19660 induced keratitis; experiment: Clinical grading of Pseudomonas keratitis in mice; assay type: in vivo, C57BL/6 mice; conditions: scale 0-4
Protocol: C57BL/6 mice were infected in one eye with P. aeruginosa ATCC 19660 and treated with 40 μM Esc-1a(1-21)NH2 or vehicle control (PBS). In some animals (Pre-trt group) treatment with Esc-1a(1-21)NH2 was initiated 24 hrs prior to infection. […] There was no significant difference between the Esc-1a(1-21)NH2 pretreatment group and when treatment was begun after infection.
To determine a clinical score, neutrophil infiltration by myeloperoxidase assay (MPO assay) and viable bacterial cell counts in infected and control corneas of C57BL/6 mice with Pseudomonas aeruginosa ATCC 19660 keratitis following pre-treatment and post-infection treatment with Esc-1a(1-21)NH2 up to 5 days post-infection (PI) the following experiment was performed. In these experiments pre-treatment refers to a group of animals where treatment was initiated 24 hrs before infection then continued after infection.
Images of the uninfected control and infected eye were taken on days 1, 3 and 5 PI using a camera equipped slit lamp biomicroscope. Clinical grading of infection on days 1, 3 and 5 PI was by visualizing through a slit lamp and using an established grading scale (Table 2). A myeloperoxidase assay was used to quantitate the polymorphonuclear cell numbers in the infected and control corneas (data presented in FIG. 6). Viable counts for bacteria were recovered from corneas at day 1, 3 and 5 PI (FIG. 7).
1. IP injections of ketamine and xylazine mixture were given (final dose 100 and 10 mg/kg respectively) to anesthetize the mice.
2. Pre-treatment group-5 μl of peptide (40 μM) was instilled topically onto intact corneas—3 times in 24 h.
3. Day 0—Day of infection: • a. 3×1 mm parallel scratches were made at the center of the right cornea of the mice using a 271/2 gauge needle and 5 μl of P. aeruginosa ATCC19660 bacterial solution (1×10^6 CFU) was pipetted on the wounded cornea. • b. Topically pipetted 5 μl of 40 μM Esc-1a(1-21)NH2 or vehicle (PBS) on the cornea 2-times on Day 0 starting 5 hours after bacterial infection.
4. Day 1 post-infection: • a. Captured images and graded the infection using a slit lamp biomicroscope. • b. Harvested corneas from 2 mice per group, pooled the corneas and processed them to perform the MPO assay. • c. Instilled peptide or vehicle three times/24 hrs (6.30 am, 1.30 pm, 8.30 pm).
5. Repeated the peptide or vehicle treatment 3 times a day for the next 4 days.
6. In addition, captured images, graded the infection and repeated the MPO assay on Day 3 and 5 post-infection.
The mean clinical scores for the Esc-1a(1-21)NH2 treated and PBS vehicle control group at day 1, 3 and 5 PI obtained from 4 separate experiments where the size of inoculum was 1*10^6 CFU/5 μl were plotted (FIG. 5).

HaCaT keratinocytes = test system: HaCaT keratinocytes
Excerpt: Cell viability is expressed as percentage with respect to the control (cells not treated with the peptide). Data points represent the mean of triplicate samples ±SEM.

SMILES: CC[C@H](C)[C@H](NC(=O)CN)C(=O)N[C@@H](Cc1ccccc1)C(=O)N[C@@H](CO)C(=O)N[C@@H](CCCCN)C(=O)N[C@@H](CC(C)C)C(=O)N[C@@H](C)C(=O)NCC(=O)N[C@@H](CCCCN)C(=O)N[C@@H](CCCCN)C(=O)N[C@H](C(=O)N[C@@H](CCCCN)C(=O)N[C@@H](CC(N)=O)C(=O)N[C@@H](CC(C)C)C(=O)N[C@@H](CC(C)C)C(=O)N[C@H](C(=O)N[C@@H](CO)C(=O)NCC(=O)N[C@@H](CC(C)C)C(=O)N[C@@H](CCCCN)C(=O)NCC(N)=O)[C@@H](C)CC)[C@@H](C)CC [Esc-1a(1-21)NH2] (H-GIFSKLAGKKIKNLLISGLKG-NH2; N-terminus assumed)
- MIC values range (Pseudomonas aeruginosa; P. aeruginosa clinical isolates): 2 to 8 µM
- MIC (Pseudomonas aeruginosa; Pseudomonas aeruginosa 1 Rm, clinical ocular isolate): 4 µM (≈ 8.74 µg/mL)
- MIC (Pseudomonas aeruginosa; Pseudomonas aeruginosa ATCC 19660, reference strain): 16 µM (≈ 35 µg/mL)
- MIC (Pseudomonas aeruginosa; Pseudomonas aeruginosa R1, clinical ocular isolate): 2 µM (≈ 4.37 µg/mL)
- MIC (Pseudomonas aeruginosa; Pseudomonas aeruginosa n. 2 ME, clinical ocular isolate): 8 µM (≈ 17.5 µg/mL)
- MIC (Pseudomonas aeruginosa; Pseudomonas aeruginosa n. 3, clinical ocular isolate): 8 µM (≈ 17.5 µg/mL)
- MIC (Staphylococcus aureus): 64 µM (≈ 140 µg/mL)
- MIC [1]: 8 µM (≈ 17.5 µg/mL)
- MIC (Staphylococcus hominis): 1 µM (≈ 2.18 µg/mL)
- mean clinical score ([2]; pre-treated (40 μM topical from 24 h before infection), day 1 PI): 1.37±0.07
- mean clinical score ([2]; pre-treated, day 3 PI): 2.29±0.17
- mean clinical score ([2]; pre-treated, day 5 PI): 2.86±0.20
- mean clinical score ([2]; treated after infection (40 μM topical), day 1 PI): 1.38±0.22
- mean clinical score ([2]; treated after infection, day 3 PI): 2.36±0.24
- mean clinical score ([2]; treated after infection, day 5 PI): 2.89±0.26
- reduction in the number of metabolically-active keratinocytes (HaCaT keratinocytes; 2 h treatment, 1-64 μM): did not show any remarkable reduction
- reduction in the percentage of metabolically-active cells (HaCaT keratinocytes; 24 h, 32 μM and 64 μM): approximately 20%
